Literature values in article PMC10872542 (Structure (London, England : 1993), 2023).

test system: TRPV5; conditions: read-out: IC50 of TRPV5 inhibition

Compound	IC50 [µM]
CC(OC(=O)CC1Sc2ccccc2NC1=O)c1nc2scc(-c3ccccc3)c2c(=O)[nH]1 (stereo not drawn) [ZINC9155420]	~3
Cl.Cl.Cl.Cl.Cl.Cl.N.N.N.N.N.N.N.N.N.N.N.N.N.N.[O-2].[O-2].[Ru+3].[Ru+3].[Ru+4] [ruthenium red]	~0.1
O=C(CCN1C(=O)COc2ccccc21)OCc1nc2scc(-c3ccccc3)c2c(=O)[nH]1 [ZINC17988990]	~0.1
